Source: patent EP3827825A1, “USE OF 3, 4-DIARYLPYRAZOLES AS ANTIBACTERIAL AGENTS” (Wageningen Universiteit, priority 2019, dated 2021)
Converted amounts (≈) assume the structure as drawn. Where two headings read alike, the source gives them in different places.

What was measured:
S. aureus Newman = assay: Minimal inhibitory concentration (MIC), double-dilution in broth, OD600; format: cell-based, Staphylococcus aureus Newman; conditions: unit assumed
In short: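 Twofold broth dilution series of compound from a DMSO stock, against S. aureus Newman from a 1:100-diluted overnight culture. Plates were incubated for 24 hours, then read at OD600. The MIC is the lowest concentration showing no growth.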

E. faecium Van A = assay: as above; format: cell-based, Enterococcus faecium; conditions: unit assumed
In short: (§1)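 Compounds from DMSO stock were twofold serially diluted in broth (starting 50 µg/mL) and inoculated with overnight bacterial culture; after 24 h, OD600 was read and the MIC taken as the lowest concentration without growth. M. marinum was tested in Middlebrook 7H9 broth, read after 3 days at 30 °C.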

M. marinum = assay: Minimal inhibitory concentration (MIC), Middlebrook 7H9 broth, 3 days at 30 °C; format: cell-based, Mycobacterium marinum; conditions: unit assumed
In short: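 Read-out was OD600 after 24 h incubation, with MIC defined as the lowest compound concentration showing no visible growth. Plates held twofold broth dilutions from 50 µg/mL, seeded with 100-fold diluted overnight cultures. For M. marinum, 7H9 broth and 3 days at 30 °C applied.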

E. coli JW5503 = format: cell-based, Escherichia coli; conditions: unit assumed
In short: as §1

P. multocida = assay: Minimal inhibitory concentration (MIC), double-dilution in broth, OD600; format: cell-based, Pasteurella multocida; conditions: unit assumed
In short: as §1

S. suis = assay: as above; format: cell-based, Streptococcus suis; conditions: unit assumed
In short: as §1

HEK293 = assay: Cell toxicity, Alamar blue assay, 24 hours exposure; format: cell-based; conditions: for IC50: Homo sapiens
In short: (§2)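 NRK-52E or HEK293 cells were exposed for 24 h to compounds (0.39–500 µg/mL, serum-free medium), mostly in single measurement. After compound removal, resazurin conversion to fluorescent resorufin over 45 min indicated viable cells.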

NRK-52E = assay: as above; format: cell-based; conditions: for IC50: Rattus norvegicus, read-out: IC50 NRK-52E (50 mg/mL stock)
In short: as §2

[1] = HEK293, read-out: IC50 HEK293 (5 mg/mL stock)
[2] = HEK293, read-out: IC50 HEK293 (50 mg/mL stock)

SMILES	MIC S. aureus Newman (S. aureus Newman) [µg/mL]	MIC E. faecium Van A (E. faecium Van A) [µg/mL]	MIC M. marinum (M. marinum) [µg/mL]	MIC E. coli JW5503 (E. coli JW5503) [µg/mL]	MIC P. multocida (P. multocida) [µg/mL]	MIC S. suis (S. suis) [µg/mL]	IC50 HEK293 (5 mg/mL stock) (HEK293; HEK293, 5 mg/mL stock)	IC50 HEK293 (50 mg/mL stock) (HEK293)	IC50 NRK-52E (50 mg/mL stock) (NRK-52E)	IC50 (HEK293; [1]) [µg/mL]	IC50 (HEK293; [2]) [µg/mL]	IC50 (NRK-52E) [µg/mL]
Oc1ccc(-c2n[nH]c(C(F)(F)F)c2-c2ccc(Br)cc2)c(O)c1 [AND-1, 4-[4-(4-bromophenyl)-5-(trifluoromethyl)-1∼{H}-pyrazol-3-yl]resorcinol]	3.13 (≈ 7.84 µM)	12.5 (≈ 31.3 µM)	> 50	1.56 (≈ 3.91 µM)	25 (≈ 62.6 µM)	12.5 (≈ 31.3 µM)	6.94	14.7	∼3.86	–	–	–
Cc1noc(-c2ccc(O)cc2O)c1-c1ccc(Br)cc1 [AND-3, 4-[4-(4-bromophenyl)-3-methyl-isoxazol-5-yl]resorcinol]	25 (≈ 72.2 µM)	0.78 (≈ 2.25 µM)	> 50	6.25 (≈ 18.1 µM)	50 (≈ 144 µM)	50 (≈ 144 µM)	–	–	–	12.2 (≈ 35.2 µM)	62.9 (≈ 182 µM)	~354 (≈ 1020 µM)
COc1ccc(-c2[nH]nc(C)c2-c2ccc(Br)cc2)c(O)c1 [May-4, 2-[4-(4-bromophenyl)-5-methyl-1∼{H}-pyrazol-3-yl]-5-methoxy-phenol]	6.25 (≈ 17.4 µM)	12.5 (≈ 34.8 µM)	25 (≈ 69.6 µM)	3.13 (≈ 8.71 µM)	12.5 (≈ 34.8 µM)	6.25 (≈ 17.4 µM)	–	–	–	8.96 (≈ 24.9 µM)	–	~83.7 (≈ 233 µM)
CCOc1ccc(-c2[nH]nc(C(F)(F)F)c2-c2ccc(Br)cc2)c(O)c1 [May-6, 2-[4-(4-bromophenyl)-5-(trifluoromethyl)-1∼{H}-pyrazol-3-yl]-5-ethoxy-phenol]	1.56 (≈ 3.65 µM)	3.13 (≈ 7.33 µM)	50 (≈ 117 µM)	3.13 (≈ 7.33 µM)	> 50	3.13 (≈ 7.33 µM)	–	–	–	4.53 (≈ 10.6 µM)	–	~563 (≈ 1320 µM)
O=[N+]([O-])c1ccc(COc2ccc(-c3n[nH]c(C(F)(F)F)c3-c3ccc(Br)cc3)c(O)c2)cc1 [May-11, 2-[4-(4-bromophenyl)-5-(trifluoromethyl)-1∼{H}-pyrazol-3-yl]-5-(4-nitrobenzyl)oxyphenol]	1.56 (≈ 2.92 µM)	1.56 (≈ 2.92 µM)	12.5 (≈ 23.4 µM)	> 50	> 50	3.13 (≈ 5.86 µM)	–	–	–	–	6.2 (≈ 11.6 µM)	~3.91 (≈ 7.32 µM)
NNC(=O)COc1ccc(-c2n[nH]c(C(F)(F)F)c2-c2ccc(Br)cc2)c(O)c1 [May-12, 2-[4-[4-(4-bromophenyl)-5-(trifluoromethyl)-1∼{H}-pyrazol-3-yl]-3-hydroxy-phenoxy]acetohydrazide]	12.5 (≈ 26.5 µM)	12.5 (≈ 26.5 µM)	> 50	6.25 (≈ 13.3 µM)	50 (≈ 106 µM)	6.25 (≈ 13.3 µM)	–	–	–	7.04 (≈ 14.9 µM)	–	27.2 (≈ 57.7 µM)
Oc1ccc(-c2n[nH]c(C(F)(F)F)c2-c2ccc(Cl)cc2)c(O)c1 [May-14, 4-[4-(4-chlorophenyl)-5-(trifluoromethyl)-1∼{H}-pyrazol-3-yl]resorcinol]	3.13 (≈ 8.82 µM)	12.5 (≈ 35.2 µM)	> 50	3.13 (≈ 8.82 µM)	25 (≈ 70.5 µM)	12.5 (≈ 35.2 µM)	–	–	–	–	10.6 (≈ 29.9 µM)	3.04 (≈ 8.57 µM)
Oc1cc(OCc2ccccc2)ccc1-c1n[nH]c(C(F)(F)F)c1-c1ccc(Br)cc1 [May-15, 5-benzoxy-2-[4-(4-bromophenyl)-5-(trifluoromethyl)-1∼{H}-pyrazol-3-yl]phenol]	1.56 (≈ 3.19 µM)	3.13 (≈ 6.4 µM)	12.5 (≈ 25.5 µM)	> 50	> 50	3.13 (≈ 6.4 µM)	–	–	–	–	6.9 (≈ 14.1 µM)	5.13 (≈ 10.5 µM)
COc1ccc(-c2c(-c3ccc(OCC(=O)NN)cc3O)n[nH]c2C(F)(F)F)cc1 [May-17, 2-[3-hydroxy-4-[4-(4-methoxyphenyl)-5-(trifluoromethyl)-1∼{H}-pyrazol-3-yl]phenoxy]acetohy drazide]	25 (≈ 59.2 µM)	25 (≈ 59.2 µM)	> 50	6.25 (≈ 14.8 µM)	> 50	25 (≈ 59.2 µM)	–	–	–	15 (≈ 35.5 µM)	–	22 (≈ 52.2 µM)
Oc1cc(OCc2ccc(Br)cc2)ccc1-c1n[nH]c(C(F)(F)F)c1-c1ccc(Cl)cc1 [May-18, 5-(4-bromobenzyl)oxy-2-[4-(4-chlorophenyl)-5-(trifluoromethyl)-1∼{H}-pyrazol-3-yl]phenol]	0.78 (≈ 1.49 µM)	3.13 (≈ 5.98 µM)	6.25 (≈ 11.9 µM)	> 50	> 50	3.13 (≈ 5.98 µM)	–	4.7	4.568	–	–	–
CCOc1ccc(-c2n[nH]c(C(F)(F)F)c2-c2ccccc2OC)c(O)c1 [May-20, 5-ethoxy-2-[4-(2-methoxyphenyl)-5-(trifluoromethyl)-1∼{H}-pyrazol-3-yl]phenol]	6.25 (≈ 16.5 µM)	12.5 (≈ 33 µM)	25 (≈ 66.1 µM)	3.13 (≈ 8.27 µM)	50 (≈ 132 µM)	6.25 (≈ 16.5 µM)	–	–	–	2.1 (≈ 5.55 µM)	–	~17.6 (≈ 46.5 µM)
COc1ccc(-c2[nH]nc(C(F)(F)F)c2-c2ccc(Br)cc2)c(O)c1 [May-23, 2-[4-(4-bromophenyl)-5-(trifluoromethyl)-1∼{H}-pyrazol-3-yl]-5-methoxy-phenol]	3.13 (≈ 7.58 µM)	3.13 (≈ 7.58 µM)	> 50	3.13 (≈ 7.58 µM)	50 (≈ 121 µM)	6.25 (≈ 15.1 µM)	–	–	–	8.38 (≈ 20.3 µM)	9 (≈ 21.8 µM)	~2.81 (≈ 6.81 µM)
Oc1cc(OCc2ccccc2)ccc1-c1[nH]nc(C(F)(F)F)c1-c1ccccc1 [May-24, 5-benzoxy-2-[4-phenyl-5-(trifluoromethyl)-1∼{H}-pyrazol-3-yl]phenol]	1.56 (≈ 3.8 µM)	1.56 (≈ 3.8 µM)	25 (≈ 60.9 µM)	25 (≈ 60.9 µM)	> 50	3.13 (≈ 7.63 µM)	–	–	–	–	4.8 (≈ 11.7 µM)	~3.86 (≈ 9.41 µM)
